# Reference: patent US10774071B2, “PD-1/PD-L1 inhibitors” (Gilead Sciences, Inc., priority 2018, dated 2020)
# Read-outs that look alike come from different tables or passages of the source.
# Key:
# [1] = molecular target: PD-1/PD-L1 (Homo sapiens (Human), UniProt Q9NZQ7); assay: PD-1/PD-L1 biochemical protein-protein interaction assay (ALPHA); type: binding; conditions: read-out: IC50 PD-L1-PD1
# [2] = molecular target: PD-L1 (Homo sapiens (Human), UniProt Q9NZQ7); assay: PD-L1/PD-L1 dimerization biochemical protein-protein interaction assay (ALPHA); type: binding; conditions: read-out: AC50 PDL1 Dimer 1 nM
# [3] = molecular target: FFA1 (h) (GRP40) (Homo sapiens (Human), UniProt O14842); assay: GPR40 functional assay, agonist effect (intracellular Ca2+, fluorimetry); type: cell-based; conditions: HEK293, human recombinant GPR40 in HEK-293 cells, control 100 μM linoleic acid
# Method: (§1) Select compounds were tested in a functional GRP40 assay as described in Briscoe, C. P. et al. (Brit. J. Pharmacol., (2006), 148: 619-628) to determine agonist/antagonist activity. […] Using a HEK-293 cell line transiently transduced to express GPR40, the agonist/antagonist activity of select compounds has been assessed.
# [4] = molecular target: FFA1 (h) (GPR40) (Homo sapiens (Human), UniProt O14842); assay: GPR40 functional assay, antagonist effect (intracellular Ca2+, fluorimetry); type: cell-based; conditions: stimulus linoleic acid 20000 nM; for inhibition at 10 µM: HEK293, human recombinant GPR40 in HEK-293 cells
# Method: as §1
# [5] = 0.3 nM His tagged PD-L1, 2.5 nM biotinylated Fc-PD-1, readings of 0.064 nM are equal to or less than 0.064 nM
# [6] = 0.5 nM His tagged PD-L1 and 0.5 nM FLAG tagged PD-L1, Table 4A
# [7] = 1st replicate, read-out: % of control agonist response, 1st
# [8] = 2nd replicate, read-out: % of control agonist response, 2nd
# [9] = mean, read-out: % of control agonist response, Mean
# [10] = 0.3 nM His tagged PD-L1, 2.5 nM biotinylated Fc-PD-1, Table 3B
# [11] = 0.5 nM His tagged PD-L1 and 0.5 nM FLAG tagged PD-L1, Table 4B
# [12] = 1st replicate, read-out: % inhibition of control agonist response, 1st
# [13] = 2nd replicate, read-out: % inhibition of control agonist response, 2nd
# [14] = mean, read-out: % inhibition of control agonist response, Mean
# Chain of PD-L1 (Q9NZQ7 19-238): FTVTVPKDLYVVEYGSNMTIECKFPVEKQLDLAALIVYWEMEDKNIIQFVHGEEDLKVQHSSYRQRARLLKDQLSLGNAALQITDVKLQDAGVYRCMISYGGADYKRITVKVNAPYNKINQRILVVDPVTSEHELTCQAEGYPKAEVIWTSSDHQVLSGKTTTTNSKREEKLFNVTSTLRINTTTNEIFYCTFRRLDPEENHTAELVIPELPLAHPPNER
# Chain of PD-L1 (Q9NZQ7 19-238): as above
# Chain of PD-1/PD-L1 (Q9NZQ7 19-238): as above
# Chain of FFA1 (h) (GPR40) (O14842 whole entry): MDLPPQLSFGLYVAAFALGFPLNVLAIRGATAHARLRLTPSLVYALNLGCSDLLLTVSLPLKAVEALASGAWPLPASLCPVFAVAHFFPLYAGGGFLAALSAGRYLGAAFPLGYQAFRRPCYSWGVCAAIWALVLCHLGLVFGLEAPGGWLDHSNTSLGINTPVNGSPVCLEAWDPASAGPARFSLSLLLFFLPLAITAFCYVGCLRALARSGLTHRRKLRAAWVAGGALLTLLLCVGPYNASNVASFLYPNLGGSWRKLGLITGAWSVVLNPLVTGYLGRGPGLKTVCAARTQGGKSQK
# Chain of FFA1 (h) (GRP40) (O14842 whole entry): as above
Compound,"IC50 [1, 5] [nM]","AC50 [2, 6] [nM]","IC50 [1, 10] [nM]","AC50 [2, 11] [nM]",other results
"COc1nc(-c2cccc(-c3cccc4c3CC[C@@H]4Nc3nc(OC)c(CN4CC5(C(=O)O)CCC4CC5)nc3C(F)(F)F)c2Cl)ccc1CNC[C@@H]1CCC(=O)N1 [A-18, 2-((5-(((S)-4-(2-chloro-3-(6-methoxy-5-(((((S)-5-oxopyrrolidin-2-yl)methyl)amino)methyl)pyridin-2-yl)phenyl)-2,3-dihydro-1H-inden-1-yl)amino)-3-methoxy-6-(trifluoromethyl)pyrazin-2-yl)methyl)-2-azabicyclo[2.2.2]octane-4-carboxylic acid]",≤ 0.064,15.7,,,"activity at 10 µM [3, 7]: -0.6%; activity at 10 µM [3, 8]: -1.9%; activity at 10 µM [3, 9]: -1.3%; % inhibition of control agonist response, 1st ([4]; 10 μM, human recombinant GPR40 in HEK-293 cells, 1st replicate): 8.3%; % inhibition of control agonist response, 2nd ([4]; 10 μM, human recombinant GPR40 in HEK-293 cells, 2nd replicate): 17.4%; % inhibition of control agonist response, Mean ([4]; 10 μM, human recombinant GPR40 in HEK-293 cells, mean): 12.8%"
COc1nc(-c2cccc(-c3cccc4c3CC[C@@H]4Oc3nc(OC)c(CNC4(C(=O)O)CC4)cc3C(F)(F)F)c2Cl)ccc1CNC[C@@H]1CCC(=O)N1 [B-36],,,0.064,3.77,"activity at 10 µM [3, 7]: -0.4%; activity at 10 µM [3, 8]: -0.5%; activity at 10 µM [3, 9]: -0.4%; inhibition at 10 µM [4, 12]: 30.5%; inhibition at 10 µM [4, 13]: 17%; inhibition at 10 µM [4, 14]: 23.7%"
COc1nc(-c2cccc(-c3cccc4c3CC[C@@H]4Oc3nc(OC)c(CN4CC5(C(=O)O)CCC4CC5)nc3C)c2Cl)ccc1CNC[C@@H]1CCC(=O)N1 [B-149],,,0.064,32.4,"activity at 10 µM [3, 7]: -2%; activity at 10 µM [3, 8]: -0.5%; activity at 10 µM [3, 9]: -1.2%; inhibition at 10 µM [4, 12]: 8%; inhibition at 10 µM [4, 13]: 15%; inhibition at 10 µM [4, 14]: 11.5%"
COc1nc(-c2cccc(-c3cccc4c3CC[C@@H]4Nc3nc(OC)c(CNC4(C(=O)O)CC4)cc3C(F)(F)F)c2Cl)ccc1CNC[C@@H]1CCC(=O)N1 [A-41],≤ 0.064,7.6,,,"activity at 10 µM [3, 7]: 1.1%; activity at 10 µM [3, 8]: 0.1%; activity at 10 µM [3, 9]: 0.6%; inhibition at 10 µM [4, 12]: 23.1%; inhibition at 10 µM [4, 13]: 13.1%; inhibition at 10 µM [4, 14]: 18.1%"
COc1nc(-c2cccc(-c3cccc4c3CC[C@@H]4Oc3nc(OC)c(CN4CCC(C)(C)C(C(=O)O)C4)cc3Cl)c2Cl)ccc1CNC[C@@H]1CCC(=O)N1 (some centres unmarked) [B-25],,,0.064,17.8,
CCN(CC(=O)O)Cc1cc(C(F)(F)F)c(O[C@H]2CCc3c(-c4cccc(-c5cc(F)c(CNC[C@@H]6CCC(=O)N6)c(OC)c5)c4Cl)cccc32)nc1OC [B-179],,,0.064,3.64,
COc1nc(-c2cccc(-c3cccc4c3CC[C@@H]4Nc3nc(OC)c(CN4CC5(CCC(=O)N5)C4)cc3Cl)c2Cl)ccc1CNC[C@@H]1CCC(=O)N1 [A-7],1.18,180,,,
COc1nc(-c2cccc(-c3cccc4c3CC[C@@H]4Nc3nc(OC)c(CN4CC(C(=O)O)C4)cc3C(F)(F)F)c2Cl)ccc1CNC[C@@H]1CCC(=O)N1 [A-55],≤ 0.064,13.2,,,
COc1nc(-c2cccc(-c3cccc4c3CC[C@@H]4Oc3nc(OC)c(CN4CC(C)(O)C4)cc3Cl)c2Cl)ccc1CNC[C@@H]1CCC(=O)N1 [B-102],,,0.146,80.6,
COc1nc(-c2cccc(-c3cccc4c3CC[C@@H]4Nc3nc(OC)c(CNCC(=O)O)cc3C(F)(F)F)c2Cl)ccc1CNC[C@H]1C[C@](C)(O)C1 [A-84],≤ 0.064,31.8,,,
COc1nc(-c2cccc(-c3cccc4c3CC[C@@H]4Oc3nc(OC)c(CNC4(C(=O)O)CC4)cc3C(F)(F)F)c2Cl)ccc1CNC[C@@H]1CC(O)C(=O)N1 (some centres unmarked) [B-204],,,0.064,9.7,
COc1nc(-c2cccc(-c3cccc4c3CC[C@@H]4Oc3nc(OC)c(CN4C[C@@H]5C[C@@H]5[C@H]4C(=O)O)cc3C(F)(F)F)c2Cl)ccc1CNC[C@@H]1CCC(=O)N1 [B-138],,,0.064,11.6,
COc1cc(O[C@H]2CCc3c(-c4cccc(-c5ccc(CNC[C@@H]6CCC(=O)N6)c(OC)n5)c4Cl)cccc32)c(C(F)(F)F)cc1CN1CC[C@@](C)(C(=O)O)C1 [B-218],,,0.064,17.3,
COc1nc(-c2cccc(-c3cccc4c3CC[C@@H]4Oc3nc(OC)c(CN4CCCC[C@@]4(C)C(=O)O)cc3C(F)(F)F)c2Cl)ccc1CNC[C@@H]1CCC(=O)N1 [B-135],,,0.064,2.76,
COc1nc(N[C@H]2CCc3c(-c4cccc(-c5ccc(CNC[C@@H]6CCC(=O)N6)c(OCC#N)n5)c4Cl)cccc32)c(C(F)(F)F)cc1CN1CCC[C@]1(C)C(=O)O [A-28],≤ 0.064,18.1,,,
COc1nc(O[C@H]2CCc3c(-c4cccc(-c5cc(C)c(CNC[C@@H]6CCC(=O)N6)c(OC)n5)c4Cl)cccc32)c(C)cc1CNC(C)(C)C(=O)O [B-243],,,0.064,15.8,
COc1nc(-c2cccc(-c3cccc4c3CC[C@@H]4Nc3nc(OC)c(CNC(C)(C)C(=O)O)cc3C(F)(F)F)c2Cl)ccc1CNC[C@@H]1CCC(=O)N1 [A-40],≤ 0.064,6.81,,,
COc1nc(-c2cccc(-c3cccc4c3CC[C@@H]4Oc3nc(OC)c(CN4CCC5CC4(C(=O)O)C5)cc3C(F)(F)F)c2Cl)ccc1CNC[C@@H]1CCC(=O)N1 [B-233],,,0.064,0.518,
COc1nc(-c2cccc(-c3cccc4c3CC[C@@H]4Oc3nc(OC)c(CN4CC5CCC4C5C(=O)O)cc3Cl)c2Cl)ccc1CNC[C@@H]1CCC(=O)N1 (some centres unmarked) [B-174],,,0.064,7.97,
COc1nc(-c2cccc(-c3cccc4c3CC[C@@H]4Nc3nc(OC)c(CN4CC[C@@H](C(=O)O)C4)cc3C(F)(F)F)c2Cl)ccc1CN1CC(C)(O)C1 [A-25],≤ 0.064,28.1,,,
COc1nc(-c2cccc(-c3cccc4c3CC[C@@H]4Nc3nc(OC)c(CN(C)[C@@H](C)C(=O)O)nc3C(F)(F)F)c2Cl)ccc1CNC[C@@H]1CCC(=O)N1 [A-96],≤ 0.064,3.97,,,
COc1nc(-c2cccc(-c3cccc4c3CC[C@@H]4Oc3nc(OC)c(CN4C[C@H]5C[C@H]5[C@H]4C(=O)O)cc3C(F)(F)F)c2Cl)ccc1CNC[C@@H]1CCC(=O)N1 [B-234],,,0.064,3.18,
CC[C@H](NCc1cc(C(F)(F)F)c(O[C@H]2CCc3c(-c4cccc(-c5ccc(CN[C@H]6C[C@](C)(O)C6)c(OC)n5)c4Cl)cccc32)nc1OC)C(=O)O [B-211],,,0.064,9.21,
COc1nc(-c2cccc(-c3cccc4c3CC[C@@H]4Nc3nc(OC)c(CN4C5CCC4(C(=O)O)CC5)cc3C(F)(F)F)c2Cl)ccc1CNC[C@@H]1CCC(=O)N1 [A-61],≤ 0.064,10.6,,,
COc1nc(-c2cccc(-c3cccc4c3CC[C@@H]4Oc3nc(OCC#N)c(CNC4(C(=O)O)CC4)cc3C(F)(F)F)c2Cl)ccc1CNC[C@@H]1CCC(=O)N1 [B-22],,,0.074,13.4,
